Patent US20060188938A1, “Compounds for inhibiting beta-amyloid production and methods of identifying the compounds” (priority 2005, published 2006)

SMILES | melting point
CC(=O)C1=C(C)NC(C)=C(C(C)=O)C1c1ccccc1Cl [Example 7, 4-(2-Chlorophenyl)-1,4-dihydro-2,6-dimethylpyridine-3,5-di(2-ethanone)] | 196 to 197 °C
COC(=O)C1=C(C)NC(C)=C(C(=O)OC)C1c1ccccc1Cl [Example 8, Dimethyl 4-(2-chlorophenyl)-1,4-dihydro-2,6-dimethylpyridine-3,5-dicarboxylate] | 188 to 189 °C
CC1=C(C(=O)OC(C)(C)C)C(c2ccccc2Cl)C(C(=O)OC(C)(C)C)=C(C)N1 [Example 9, Di-tert-butyl 4-(2-chlorophenyl)-1,4-dihydro-2,6-dimethylpyridine-3,5-dicarboxylate] | 194 to 196 °C
COCCOC(=O)C1=C(C)NC(C)=C(C(=O)OCCOC)C1c1ccccc1Cl [Example 10, Bis(2-methoxyethyl) 4-(2-chlorophenyl)-1,4-dihydro-2,6-dimethylpyridine-3,5-dicarboxylate] | 120 to 121 °C
CCOC(=O)C1=C(C)NC(C)=C(C(=O)OCC)C1c1ccccc1Br [Example 11, Diethyl 4-(2-bromophenyl)-1,4-dihydro-2,6-dimethylpyridine-3,5-dicarboxylate] | 144 to 145 °C
CCOC(=O)C1=C(C)NC(C)=C(C(=O)OCC)C1c1ccccc1F [Example 12, Diethyl 4-(2-fluorophenyl)-1,4-dihydro-2,6-dimethylpyridine-3,5-dicarboxylate] | 151 to 152.5 °C
CC1=C(C(=O)OC(C)(C)C)C(c2ccccc2Br)C(C(=O)OC(C)(C)C)=C(C)N1 [Example 14, Di-tert-butyl 4-(2-bromophenyl)-1,4-dihydro-2,6-dimethylpyridine-3,5-dicarboxylate] | 162 to 164 °C
CC1=C(C(=O)OC(C)(C)C)C(c2ccccc2[N+](=O)[O-])C(C(=O)OC(C)(C)C)=C(C)N1 [Example 15, Di-tert-butyl 1,4-dihydro-2,6-dimethyl-4-(2-nitrophenyl)pyridine-3,5-dicarboxylate] | 159 to 161 °C
C=CCOC(=O)C1=C(C)NC(C)=C(C(=O)OCC=C)C1c1ccccc1Cl [Example 16, Diallyl 4-(2-chlorophenyl)-1,4-dihydro-2,6-dimethylpyridine-3,5-dicarboxylate] | 98 to 99 °C
COCC1=C(C(=O)OC)C(c2ccccc2Cl)C(C(=O)OC)=C(COC)N1 [Example 17, Dimethyl 4-(2-chlorophenyl)-1,4-dihydro-2,6-bis(methoxymethyl)pyridine-3,5-dicarboxylate] | 137 to 138 °C
CCOC(=O)C1=C(C)NC(C)=C(C(=O)OCC)C1c1ccccc1I [Example 18, Diethyl 1,4-dihydro-4-(2-iodophenyl)-2,6-dimethylpyridine-3,5-dicarboxylate] | 173 to 174.5 °C
COC(=O)C1=C(C)NC(C)=C(C(=O)OC)C1c1ccccc1Br [Example 19, Dimethyl 4-(2-bromophenyl)-1,4-dihydro-2,6-dimethylpyridine-3,5-dicarboxylate] | 164 to 165 °C
CC1=C(C(=O)OC(C)(C)C)C(c2cccc(Cl)c2)C(C(=O)OC(C)(C)C)=C(C)N1 [Example 21, Di-tert-butyl 4-(3-chlorophenyl)-1,4-dihydro-2,6-dimethylpyridine-3,5-dicarboxylate] | 189.5 to 190.5 °C
CCOC(=O)C1=C(C)NC(C)=C(C(=O)OCC)C1c1ccc(Cl)cc1 [Example 22, Diethyl 4-(4-chlorophenyl)-1,4-dihydro-2,6-dimethylpyridine-3,5-dicarboxylate] | 151 to 152 °C
CC1=C(C(=O)OC(C)(C)C)C(c2ccc(Cl)cc2)C(C(=O)OC(C)(C)C)=C(C)N1 [Example 23, Di-tert-butyl 4-(4-chlorophenyl)-1,4-dihydro-2,6-dimethylpyridine-3,5-dicarboxylate] | 191.5 to 192.5 °C
CCOC(=O)C1=C(C)NC(C)=C(C(=O)OCC)C1c1cccc(Br)c1 [Example 24, Diethyl 4-(3-bromophenyl)-1,4-dihydro-2,6-dimethylpyridine-3,5-dicarboxylate] | 125 to 126 °C
CC1=C(C(=O)OC(C)(C)C)C(c2cccc(Br)c2)C(C(=O)OC(C)(C)C)=C(C)N1 [Example 25, Di-tert-butyl 4-(3-bromophenyl)-1,4-dihydro-2,6-dimethylpyridine-3,5-dicarboxylate] | 195 to 196 °C
CC1=C(C(=O)OC(C)(C)C)C(c2ccc(Br)cc2)C(C(=O)OC(C)(C)C)=C(C)N1 [Example 27, Di-tert-butyl 4-(4-bromophenyl)-1,4-dihydro-2.6-dimethylpyridine-3,5-dicarboxylate] | 206 to 207 °C
CC1=C(C(=O)OC(C)(C)C)C(c2ccccc2I)C(C(=O)OC(C)(C)C)=C(C)N1 [Example 28, Di-tert-butyl 1,4-dihydro-4-(2-iodophenyl)-2.6-dimethylpyridine-3,5-dicarboxylate] | 184 to 185 °C
CCOC(=O)C1=C(C)NC(C)=C(C(=O)OCC)C1c1cccc(Cl)c1Cl [Example 31, Diethyl 4-(2,3-dichlorophenyl)-1,4-dihydro-2,6-dimethylpyridine-3,5-dicarboxylate] | 125 to 126 °C
CC1=C(C(=O)OC(C)(C)C)C(c2cccc(Cl)c2Cl)C(C(=O)OC(C)(C)C)=C(C)N1 [Example 32, Di-tert-butyl 4-(2,3-dichlorophenyl)-1,4-dihydro-2,6-dimethylpyridine-3,5-dicarboxylate] | 144 to 145 °C
CCOC(=O)C1=C(C)NC(C)=C(C(=O)OCC)C1c1cc(Cl)ccc1Cl [Example 34, Diethyl 4-(2,5-dichlorophenyl)-1,4-dihydro-2,6-dimethylpyridine-3,5-dicarboxylate] | 166.5 to 167.5 °C

Other lines, results leading:

melting point | SMILES
181 to 183 °C | CC1=C(C(=O)OC(C)(C)C)C(c2cc(Cl)ccc2Cl)C(C(=O)OC(C)(C)C)=C(C)N1 [Example 35, Di-tert-butyl 4-(2,5-dichlorophenyl)-1,4-dihydro-2,6-dimethylpyridine-3,5-dicarboxylate]
134 to 135 °C | CCOC(=O)C1=C(C)NC(C)=C(C(=O)OCC)C1c1c(Cl)cccc1Cl [Example 36, Diethyl 4-(2,6-dichlorophenyl)-1,4-dihydro-2,6-dimethylpyridine-3,5-dicarboxylate]
102 to 104 °C | CCOC(=O)C1=C(C)NC(C)=C(C(=O)OCC)C1c1cc(Cl)cc(Cl)c1 [Example 37, Diethyl 4-(3,5-dichlorophenyl)-1,4-dihydro-2,6-dimethylpyridine-3,5-dicarboxylate]
161 to 162 °C | CCOC(=O)C1=C(C)NC(C)=C(C(=O)OCC)C1c1cccc(F)c1F [Example 38, Diethyl 4-(2,3-difluorophenyl)-1,4-dihydro-2,6-dimethylpyridine-3,5-dicarboxylate]
130 to 131 °C | C=CCOC(=O)C1=C(C)NC(C)=C(C(=O)OCC=C)C1c1ccc(Br)cc1 [Example 40, Diallyl 4-(4-bromophenyl)-1,4-dihydro-2,6-dimethylpyridine-3,5-dicarboxylate]
171 to 172 °C | CC1=C(C(=O)OC(C)(C)C)C(c2ccc(F)c(Br)c2)C(C(=O)OC(C)(C)C)=C(C)N1 [Example 42, Di-tert-butyl 4-(3-bromo-4-fluorophenyl)-1,4-dihydro-2,6-dimethylpyridine-3,5-dicarboxylate]
154 to 155 °C | CCOC(=O)C1=C(C)NC(C)=C(C(=O)OCC)C1c1ccc(Br)cc1F [Example 43, Diethyl 4-(4-bromo-2-fluorophenyl)-1,4-dihydro-2,6-dimethylpyridine-3,5-dicarboxylate]
187 to 188 °C | CC1=C(C(=O)OC(C)(C)C)C(c2ccc(Br)cc2F)C(C(=O)OC(C)(C)C)=C(C)N1 [Example 44, Di-tert-butyl 4-(4-bromo-2-fluorophenyl)-1,4-dihydro-2,6-dimethylpyridine-3,5-dicarboxylate]
116 to 117 °C | COCCOC(=O)C1=C(C)NC(C)=C(C(=O)OCCOC)C1c1ccc(Br)cc1 [Example 46, Bis(2-methoxyethyl) 4-(4-bromophenyl)-1,4-dihydro-2,6-dimethylpyridine-3,5-dicarboxylate]
118 to 119 °C | CCOC(=O)C1=C(C)NC(C)=C(C(=O)OCC)C1c1cc(Br)ccc1F [Example 47, Diethyl 4-(5-bromo-2-fluorophenyl)-1,4-dihydro-2,6-dimethylpyridine-3,5-dicarboxylate]
173 to 174 °C | CC1=C(C(=O)OC(C)(C)C)C(c2cc(Br)ccc2F)C(C(=O)OC(C)(C)C)=C(C)N1 [Example 48, Di-tert-butyl 4-(5-bromo-2-fluorophenyl)-1,4-dihydro-2,6-dimethylpyridine-3,5-dicarboxylate]
178 to 179 °C | CC1=C(C(=O)OC(C)(C)C)C(c2cccc(F)c2)C(C(=O)OC(C)(C)C)=C(C)N1 [Example 50, Di-tert-butyl 4-(3-fluorophenyl)-1,4-dihydro-2,6-dimethylpyridine-3,5-dicarboxylate]
150 to 151 °C | CCOC(=O)C1=C(C)NC(C)=C(C(=O)OCC)C1c1ccc(F)cc1 [Example 51, Diethyl 4-(4-fluorophenyl)-1,4-dihydro-2,6-dimethylpyridine-3,5-dicarboxylate]
149 to 150 °C | CC1=C(C(=O)OC(C)(C)C)C(c2ccc(F)cc2)C(C(=O)OC(C)(C)C)=C(C)N1 [Example 52, Di-tert-butyl 4-(4-fluorophenyl)-1,4-dihydro-2,6-dimethylpyridine-3,5-dicarboxylate]
162 to 163 °C | COCC1=C(C(=O)OC)C(c2ccc(Br)cc2)C(C(=O)OC)=C(COC)N1 [Example 53, Dimethyl 4-(4-bromophenyl)-1,4-dihydro-2,6-bis(methoxymethyl)pyridine-3,5-dicarboxylate]
168 to 169 °C | CCOC(=O)C1=C(C)N(Cc2ccccc2)C(C)=C(C(=O)OCC)C1c1ccc(Br)cc1 [Example 54, Diethyl 1-benzyl-4-(4-bromophenyl)-1,4-dihydro-2,6-dimethylpyridine-3,5-dicarboxylate]
197 to 198 °C | CC1=C(C(=O)OC(C)(C)C)C(c2ccc(C)cc2C)C(C(=O)OC(C)(C)C)=C(C)N1 [Example 55, Di-tert-butyl 1,4-dihydro-2,6-dimethyl-4-(2,4-dimethylphenyl)pyridine-3,5-dicarboxylate]
